The values that follow come from patent US12606520B2, “Calpain-2 inhibitor compounds and methods of treatment” (WESTERN UNIVERSITY OF HEALTH SCIENCES, priority 2020, dated 2026).

Structures are written as SMILES.

A short description of series [1]: Stability in mouse plasma at 37° C. (residual inhibition of purified human calpain-2). The settings on record: mouse, mouse plasma, B-cyclodextrin formulation, 0.2 mM, read-out: Estimated half-life in mouse plasma (converted). The class given is in vitro ADME. The protocol:
NA112 (C12, 0.2 mM) was incubated with mouse plasma at 37° C. for the indicated periods of time. Aliquots were taken and the degree of inhibition of purified human calpain-2 was measured. Results were normalized to the maximum degree of inhibition (100%) measured at to.
NA112A in β-cyclodextrin formulation (10 μM) was incubated in mouse plasma at 37° C. for the indicated periods of time. Aliquots were taken and the degree of inhibition of purified human calpain-2 was measured. Results were normalized to the maximum degree of inhibition (50%) measured at t0.

A further series addresses T1, calpain-1 (Rattus norvegicus, UniProt P97571).
T1 construct: from tissue; host or cells: rat brain after TBI
T1 sequence (P97571 1-713): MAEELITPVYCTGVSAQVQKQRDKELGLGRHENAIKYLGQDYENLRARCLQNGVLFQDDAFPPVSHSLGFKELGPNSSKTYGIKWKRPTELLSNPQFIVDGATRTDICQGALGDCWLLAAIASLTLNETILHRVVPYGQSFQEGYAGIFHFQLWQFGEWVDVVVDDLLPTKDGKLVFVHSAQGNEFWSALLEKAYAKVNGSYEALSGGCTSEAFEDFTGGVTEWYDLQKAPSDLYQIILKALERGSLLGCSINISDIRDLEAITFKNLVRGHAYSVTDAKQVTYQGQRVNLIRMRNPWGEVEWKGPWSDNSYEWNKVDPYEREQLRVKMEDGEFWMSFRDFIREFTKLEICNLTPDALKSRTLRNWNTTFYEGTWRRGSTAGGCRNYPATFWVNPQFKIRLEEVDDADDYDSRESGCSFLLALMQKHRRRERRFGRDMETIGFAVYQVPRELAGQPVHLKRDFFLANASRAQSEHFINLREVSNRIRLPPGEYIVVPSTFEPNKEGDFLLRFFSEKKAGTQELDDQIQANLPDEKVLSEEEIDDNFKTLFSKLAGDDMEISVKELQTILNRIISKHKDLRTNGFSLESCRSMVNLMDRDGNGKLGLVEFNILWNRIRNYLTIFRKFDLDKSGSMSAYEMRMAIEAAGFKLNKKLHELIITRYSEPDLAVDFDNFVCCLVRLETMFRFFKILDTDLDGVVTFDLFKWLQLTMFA
T1 sequence (Q64537 1-270 partner): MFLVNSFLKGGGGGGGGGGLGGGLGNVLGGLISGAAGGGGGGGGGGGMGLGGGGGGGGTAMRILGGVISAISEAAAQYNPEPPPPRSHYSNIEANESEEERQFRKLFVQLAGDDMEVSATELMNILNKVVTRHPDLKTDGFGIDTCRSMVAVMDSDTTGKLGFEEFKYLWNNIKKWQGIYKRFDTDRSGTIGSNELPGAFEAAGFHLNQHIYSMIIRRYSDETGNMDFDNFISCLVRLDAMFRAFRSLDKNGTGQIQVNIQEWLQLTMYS
Nature of the series: Calpain-1 activity in brain after TBI in rats. The format is in vivo. The following applies: 1 mg/kg i.p. at 1 h and 8 h after TBI, 24 h after TBI. The protocol: We also performed the same model of TBI in male and female mice and in male and female rats. In all cases, NA184 was injected i.p. at 1 mg/kg. For the rat experiments, NA184 was injected twice at 1 h and 8 h after TBI. Animals were sacrificed 24 h after TBI and calpain activity was assayed in brain and cell death was analyzed in cortex. […] In addition, there was a highly significant correlation between calpain-2 activity and cell death in rats (FIG. 23). R^2 was 0.61 and p<0.005.

Series [2] concerns the target T2, recombinant human calpain-2 (hcalpain-2) (Homo sapiens, UniProt P17655).
T2 sequence (P17655 1-700): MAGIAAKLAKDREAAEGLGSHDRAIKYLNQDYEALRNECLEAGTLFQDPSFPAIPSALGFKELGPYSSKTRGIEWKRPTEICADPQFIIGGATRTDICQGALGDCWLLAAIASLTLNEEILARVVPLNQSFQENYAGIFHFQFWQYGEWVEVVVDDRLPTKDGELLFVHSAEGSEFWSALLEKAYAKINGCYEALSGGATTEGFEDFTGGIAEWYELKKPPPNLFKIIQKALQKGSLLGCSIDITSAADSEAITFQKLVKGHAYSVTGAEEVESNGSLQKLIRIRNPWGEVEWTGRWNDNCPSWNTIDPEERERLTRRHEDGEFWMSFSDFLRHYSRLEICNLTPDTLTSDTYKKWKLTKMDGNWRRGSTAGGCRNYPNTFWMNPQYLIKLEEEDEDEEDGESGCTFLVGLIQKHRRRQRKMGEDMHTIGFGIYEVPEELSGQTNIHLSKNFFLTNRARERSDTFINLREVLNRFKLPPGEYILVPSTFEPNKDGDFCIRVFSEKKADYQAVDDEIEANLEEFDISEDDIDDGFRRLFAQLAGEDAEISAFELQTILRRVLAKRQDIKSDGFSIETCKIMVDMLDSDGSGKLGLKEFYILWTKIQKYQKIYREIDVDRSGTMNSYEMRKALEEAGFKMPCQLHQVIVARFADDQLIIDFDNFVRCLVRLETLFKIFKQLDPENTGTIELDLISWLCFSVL
T2 sequence (P04632 1-268 partner): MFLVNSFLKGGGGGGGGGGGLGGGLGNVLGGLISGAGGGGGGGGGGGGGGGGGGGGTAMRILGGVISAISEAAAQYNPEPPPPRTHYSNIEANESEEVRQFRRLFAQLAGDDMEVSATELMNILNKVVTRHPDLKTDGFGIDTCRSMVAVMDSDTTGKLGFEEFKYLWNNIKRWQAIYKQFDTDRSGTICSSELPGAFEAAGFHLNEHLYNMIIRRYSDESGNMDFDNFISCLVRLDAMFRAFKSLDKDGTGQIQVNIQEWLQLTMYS
Nature of the series: Inhibition of recombinant human calpain-2. The format is biochemical. The protocol:
Various concentrations of NA112 in the liposomal formulation were incubated with human calpain-1 (purified from erythrocytes, ecalpain-1) or a recombinant human calpain-2 (hcalpain-2) and calpain activity assayed as in FIG. 1. IC50 were determined and transformed into Ki values (FIG. 10A, 10B). Values previously obtained with NA112 dissolved in DMSO are shown for comparison (FIG. 10B).
Cerebellar homogenates from wild-type (WT) or calpain-1 Knock-out (KO) mice were incubated with 20 μM calcium to activate calpain-1 or with 2 mM calcium to activate calpain-2, respectively, and increasing concentrations of NA184.
Like in NA112, there are 2 chiral centers in NA184. The inhibitory activity of the compounds NA184A (S-S isomer) and NA184B (S-R stereoisomer) against erythrocyte human calpain-1 (ecalpain-1) and recombinant human calpain-2 (hcalpain-2) were determined.

Turning to `CCC(NC(=O)[C@H](CC(C)C)NC(=O)NCc1ccccc1)C(=O)C(=O)NCc1cc(OC)cc(OC)c1` (mixture of isomers) [NA112, (2S)-2-(3-benzylureido)-N-(1-((3,5-dimethoxybenzyl)amino)-1,2-dioxopentan-3-yl)-4-methylpentanamide], in series [1], the half-life at 0.2 mM is 17 h.
For `CCC(NC(=O)[C@H](CC(C)C)NC(=O)NCc1ccccc1)C(=O)C(=O)NCc1cccc(Cl)c1OC` (stereo partly drawn) [NA184, (2S)-2-(3-benzylureido)-N-(1-((3-chloro-2-methoxybenzyl)amino)-1,2-dioxopentan-3-yl)-4-methylpentanamide], at calpain-1, the “Calpain-1 inhibition in brain, male and female rats” value is on record as “not calpain-1”. Besides, in series [2], the IC50 was 0.085 µM and the inhibition constant Ki worked out at 0.054 µM.

A word on the half-life: it is how long it takes for the measured level to halve. As usually defined, the IC50 is the midpoint of a concentration-inhibition curve. As usually defined, the Ki is a measure of affinity in units of concentration, obtained from inhibition or displacement.
